# Results reported in ChEMBL document CHEMBL1201862, “PubChem BioAssay data set” (2004).
# The source made the active and inactive calls.
# How the values were obtained:
# [1] = biological target: T1, Methionyl-tRNA synthetase, putative (Trypanosoma brucei brucei, UniProt Q38C91); type: functional, Trypanosoma brucei brucei strain 927/4 GUTat10.1
# T1 sequence (Q38C91 whole entry): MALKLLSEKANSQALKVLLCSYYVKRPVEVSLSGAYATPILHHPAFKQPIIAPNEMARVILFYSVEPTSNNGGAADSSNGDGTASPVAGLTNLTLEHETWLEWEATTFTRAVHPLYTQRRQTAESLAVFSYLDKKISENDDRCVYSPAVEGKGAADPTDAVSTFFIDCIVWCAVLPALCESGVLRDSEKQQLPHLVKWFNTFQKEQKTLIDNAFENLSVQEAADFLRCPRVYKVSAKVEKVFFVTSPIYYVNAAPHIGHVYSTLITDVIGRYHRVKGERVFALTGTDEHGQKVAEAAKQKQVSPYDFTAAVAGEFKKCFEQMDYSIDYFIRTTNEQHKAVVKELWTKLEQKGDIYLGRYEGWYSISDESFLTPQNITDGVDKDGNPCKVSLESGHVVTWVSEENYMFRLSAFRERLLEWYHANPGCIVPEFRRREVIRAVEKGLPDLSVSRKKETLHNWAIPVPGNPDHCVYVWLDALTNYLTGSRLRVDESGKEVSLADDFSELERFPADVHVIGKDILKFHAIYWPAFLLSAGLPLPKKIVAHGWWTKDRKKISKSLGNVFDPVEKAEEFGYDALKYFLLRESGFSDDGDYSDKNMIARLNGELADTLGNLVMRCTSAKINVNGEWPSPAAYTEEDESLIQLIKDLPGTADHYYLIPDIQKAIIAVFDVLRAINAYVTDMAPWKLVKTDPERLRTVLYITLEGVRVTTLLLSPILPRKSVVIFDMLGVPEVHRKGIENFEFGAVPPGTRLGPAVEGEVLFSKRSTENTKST
# [2] = Counterscreen for inhibitors of Trypanosoma brucei methionyl tRNA synthetase (MetRS): Luminescence-based cell-based high throughput dose response assay to identify compounds that are cytotoxic to Jurkat human T lymphocyte cells.; type: functional
# [3] = biological target: T1, Methionyl-tRNA synthetase, putative; type: functional, Trypanosoma brucei brucei strain 927/4 GUTat10.1; remark: listed apart in the source
# [4] = luciferase reporter signal suppression in cells – H4 neuroglioma cells, luminescence, dose response (AID 1990); type: functional, cell-based
# [5] = Luminescence Cell-Based Dose Response HTS to Identify Inhibitors of 5'UTR Stem-Loop Driven Prion Protein mRNA Translation in H4 Neuroglioblastoma Cells. [Related pubchem assays: 1827 (Project Summary), 1813 (Primary HTS)]; type: functional
# [6] = alpha-synuclein stem-loop luciferase translation blockers – H4 neuroglioma cells, luminescence, confirmation (AID 1988); type: functional, cell-based
# [7] = viability loss in HeLa cells – cytotoxicity control for MgcRacGAP inhibitor project, dose response (AID 624300); type: functional
# [8] = biological target: T2, Rac GTPase-activating protein 1 (Homo sapiens, UniProt Q9H0H5); test: blockers of MgcRacGAP-driven Rac1 GTP hydrolysis – biochemical, ADP Hunter fluorescence, primary and confirmatory, confirmation (AID 624330); type: functional
# T2 sequence (Q9H0H5 whole entry): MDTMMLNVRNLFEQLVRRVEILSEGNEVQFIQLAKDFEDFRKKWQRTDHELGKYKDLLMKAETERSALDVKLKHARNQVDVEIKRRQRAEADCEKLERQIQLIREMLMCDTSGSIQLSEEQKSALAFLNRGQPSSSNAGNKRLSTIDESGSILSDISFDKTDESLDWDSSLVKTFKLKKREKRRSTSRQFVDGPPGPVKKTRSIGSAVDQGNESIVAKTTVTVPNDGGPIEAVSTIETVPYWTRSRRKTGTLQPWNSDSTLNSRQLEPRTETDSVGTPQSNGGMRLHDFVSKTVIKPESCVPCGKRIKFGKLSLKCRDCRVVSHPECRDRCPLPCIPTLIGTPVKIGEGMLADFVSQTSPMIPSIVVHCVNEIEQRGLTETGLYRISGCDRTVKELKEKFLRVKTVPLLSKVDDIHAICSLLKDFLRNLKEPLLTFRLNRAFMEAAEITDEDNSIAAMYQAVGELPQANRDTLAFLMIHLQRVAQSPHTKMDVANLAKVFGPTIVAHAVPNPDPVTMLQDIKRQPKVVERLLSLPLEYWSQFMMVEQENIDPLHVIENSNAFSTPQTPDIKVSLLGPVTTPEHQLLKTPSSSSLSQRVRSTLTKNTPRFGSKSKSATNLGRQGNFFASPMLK
# [9] = blockers of HIV-1 envelope-mediated cell-cell fusion – cherry-pick, dose response (AID 652057); type: functional, cell-based
# [10] = viability loss in CEM21 cells – cell-based, CellTiter-Glo luminescence, cherry-picked, cytotoxicity control for viral fusion inhibitor project, dose response (AID 652042); type: functional;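 note: potency for signal decrease meaning cytotoxicity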
# [11] = blockers of HIV-1 ZM109 envelope-driven cell-cell fusion – HeLa effector, CEM target cells, luciferase, cherry-pick, dose response (AID 652058); type: functional, cell-based;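 note: luciferase signal from HIV-1 Env mediated cell-cell fusion of effector and target cells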
# [12] = off-target signal loss in HeLa-CEM21 co-culture – HeLa F-luc CTL cells, cherry-picked, counter-screen for HIV-1 Env fusion inhibitor project, dose response (AID 652040); type: functional, cell-based;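 note: potency for signal decrease marking cytotoxic or nonspecific inhibition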
# [13] = HIV-1 AD8 envelope cell-cell fusion blockers – cherry-pick, dose response (AID 652062); type: functional, cell-based;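 note: luciferase signal from cell-cell fusion driven by HIV-1 clade B AD8 Env; potency is for inhibitors of fusion seen as a drop in luminescence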
# [14] = blockers of bursicon-stimulated LGR2 cAMP reporter – cell-based, HEK293, CRE-luciferase reporter, cherry pick, set 2, dose response (AID 743343); type: functional;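 note: transfected cells were stimulated with diluted bursicon conditioned medium after compound addition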
# [15] = blockade of melanocortin 4 receptor signaling – cell-based, plate reader, cherry pick, counter-screen for LGR2 antagonist project, dose response (AID 743444); type: functional;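 note: transfected HEK 293 cells stimulated with alpha-MSH peptide; potency of inhibitors of the alpha-MSH evoked signal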
# [16] = Trypanosoma cruzi growth suppression in host cells – NIH3T3 host cells, beta-gal luminescence, confirmation (AID 2044); type: functional, cell-based;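 note: intracellular parasites grown in NIH/3T3 mouse fibroblasts as host cells; luminescent beta-galactosidase reporter signal from transgenic T. cruzi replicating inside host cells; inhibitors lower the luminescence signal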
# [17] = NIH3T3 cell viability loss – ATP luminescence, mouse fibroblasts, counter-screen, dose response (AID 2010); type: functional, cell-based;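 note: cells exposed to compound for about 90 hours before reading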
# [18] = biological target: T3, DNA repair protein RAD52 homolog (Homo sapiens, UniProt P43351); type: functional, biochemical
# T3 sequence (P43351 whole entry): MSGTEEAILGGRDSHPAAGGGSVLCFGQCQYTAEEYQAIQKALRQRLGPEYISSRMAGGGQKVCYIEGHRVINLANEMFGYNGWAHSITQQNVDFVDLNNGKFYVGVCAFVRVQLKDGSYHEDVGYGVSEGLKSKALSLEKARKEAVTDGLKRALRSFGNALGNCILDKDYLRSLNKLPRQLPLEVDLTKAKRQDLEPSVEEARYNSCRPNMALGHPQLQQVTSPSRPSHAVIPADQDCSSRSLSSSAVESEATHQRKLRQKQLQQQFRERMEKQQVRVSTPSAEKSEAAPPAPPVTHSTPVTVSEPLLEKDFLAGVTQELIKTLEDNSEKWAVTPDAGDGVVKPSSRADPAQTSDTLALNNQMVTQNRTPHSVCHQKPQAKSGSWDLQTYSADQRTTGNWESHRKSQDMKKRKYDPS
# [19] = reduced cellular PGC1a acetyl-lysine signal – cell-based, cherry-picked samples, dose response (AID 720514); type: functional;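 note: potency may reflect raised or lowered acetylation signal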
# [20] = biological target: T4, Microphthalmia-associated transcription factor (Homo sapiens, UniProt O75030); test: reducers of TRPM1 reporter luminescence, concentration series – cell-based, SK-MEL-5, cherry-picked, set 3, MITF inhibitor project, dose response (AID 493073); type: functional;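 note: SK-MEL-5 melanoma cells with luciferase driven by the MITF target TRPM1 promoter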
# T4 sequence (O75030 whole entry): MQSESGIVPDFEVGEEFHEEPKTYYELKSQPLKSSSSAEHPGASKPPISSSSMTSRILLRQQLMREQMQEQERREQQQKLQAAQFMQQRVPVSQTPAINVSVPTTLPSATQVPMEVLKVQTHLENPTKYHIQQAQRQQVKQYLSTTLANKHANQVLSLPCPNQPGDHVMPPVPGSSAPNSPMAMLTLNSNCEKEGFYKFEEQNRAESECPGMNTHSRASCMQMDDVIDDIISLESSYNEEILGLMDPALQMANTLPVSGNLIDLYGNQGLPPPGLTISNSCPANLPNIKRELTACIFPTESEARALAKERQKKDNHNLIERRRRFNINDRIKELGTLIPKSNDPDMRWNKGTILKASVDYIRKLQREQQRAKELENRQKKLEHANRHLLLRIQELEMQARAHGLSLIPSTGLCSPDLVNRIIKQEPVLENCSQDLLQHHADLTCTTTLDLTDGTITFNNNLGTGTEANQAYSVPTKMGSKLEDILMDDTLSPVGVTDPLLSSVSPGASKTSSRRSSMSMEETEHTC
# [21] = P. falciparum Dd2 growth inhibitors, dose response, SYBR Green, cherry-picked samples (AID 1159567); type: functional, cell-based
# [22] = test system: Streptococcus sp. 'group A'; test: Streptococcus pyogenes SK(-)GAS viability under kanamycin – luminescence, BacTiterGlo, confirmation, counter-screen for streptokinase expression inhibitor project, dose response (AID 1900); type: functional, organism-based
# [23] = biological target: T5, Streptokinase A (Streptococcus pyogenes serotype M1, UniProt P10520); test: viability-normalized secreted streptokinase activity reduction – plasminogen activation absorbance, OD405, dose response (AID 1914); type: functional, Streptococcus pyogenes M1 GAS;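 note: secreted streptokinase activity via plasminogen activation per viability signal from cell pellet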
# T5 sequence (P10520 whole entry): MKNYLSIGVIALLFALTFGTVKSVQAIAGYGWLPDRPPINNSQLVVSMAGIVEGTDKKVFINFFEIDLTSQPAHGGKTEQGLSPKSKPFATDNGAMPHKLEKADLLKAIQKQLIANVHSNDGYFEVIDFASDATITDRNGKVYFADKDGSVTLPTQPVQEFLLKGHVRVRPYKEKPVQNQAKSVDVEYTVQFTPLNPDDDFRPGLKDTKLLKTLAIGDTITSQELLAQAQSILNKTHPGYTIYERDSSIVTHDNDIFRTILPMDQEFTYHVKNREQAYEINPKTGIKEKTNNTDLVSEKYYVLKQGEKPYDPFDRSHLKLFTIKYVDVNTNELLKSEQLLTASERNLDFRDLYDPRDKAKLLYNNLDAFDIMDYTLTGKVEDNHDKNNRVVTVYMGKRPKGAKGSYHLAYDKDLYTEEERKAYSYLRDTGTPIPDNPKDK
# [24] = test system: Streptococcus; test: GAS UMAA2166 growth inhibition – luminescence, BacTiterGlo, counter-screen for streptokinase expression inhibitor project, dose response (AID 1915); type: functional, organism-based;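 note: potency for reduction of bacterial viability or growth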
# [25] = biological target: FAD-linked sulfhydryl oxidase ALR (Homo sapiens, UniProt P55789); test: ALR-catalysed DTT oxidation blockers – biochemical, H2O2 detection, luminescence, cherry-pick, dose response (AID 493248)
# Sequence of FAD-linked sulfhydryl oxidase ALR (P55789 whole entry): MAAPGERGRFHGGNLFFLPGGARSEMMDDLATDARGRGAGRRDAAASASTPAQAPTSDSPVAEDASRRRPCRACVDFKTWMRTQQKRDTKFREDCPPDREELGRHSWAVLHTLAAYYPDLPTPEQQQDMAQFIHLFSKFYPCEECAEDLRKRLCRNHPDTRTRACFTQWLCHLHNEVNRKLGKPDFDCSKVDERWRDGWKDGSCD
smiles,measurement,setting,value
CCOc1ccc(CONS(=O)(=O)c2ccc(NC(C)=O)cc2)cc1Cl,IC50,[1],17.7 µM (inactive)
same,IC50,[2],83.3 µM (inactive)
same,IC50,[3],11.1 µM (inactive)
CCOC(=O)c1sc2nc(CSc3ccccc3)nc(N3CCCN(C)CC3)c2c1C,EC50,[4],16.9 µM (active)
same,EC50,[5],> 120 µM (not active)
same,EC50,[6],8.64 µM (active)
same,CC50,[7],53.8 µM (active)
same,IC50,[8],149 µM (active)
CN1CC(c2ccccc2Cl)C2(COc3ccccc3C2=O)C12C(=O)Nc1ccccc12 (centres undefined),AC50,[9],4.21 µM (active)
same,AC50,[10],65.3 µM (active)
same,AC50,[11],3 µM (active)
same,AC50,[12],6.24 µM (active)
same,AC50,[13],10.6 µM (active)
Cc1ccc(NC(=O)CN(C)C(=O)c2cc(S(=O)(=O)N(C)C)ccc2N2CCCC2)cc1,IC50,[1],10.4 µM (inactive)
same,IC50,[2],83.3 µM (inactive)
same,IC50,[3],4.27 µM (active)
Cc1ccc(NC(=O)c2cnn(-c3ccccc3)c2C)cc1C,AC50,[14],7.23 µM (active)
same,AC50,[15],4.12 µM (active)
COc1ccc(C2c3ccc4ccccc4c3Oc3ncn(CCN(C)C)c(=N)c32)cc1 (centres undefined),EC50,[16],1.34 µM (active)
same,EC50,[17],22.1 µM (active)
same,AC50,[18],19.9 µM (active)
Cc1sc2nc(CN3CCCCC3)nc(Nc3ccc4c(c3)OCCO4)c2c1C,AC50,[18],22.2 µM (active)
CCn1c(SCC(=O)c2c[nH]c3ccccc23)nc2cc(S(=O)(=O)N3CCOCC3)ccc21,IC50,[1],12.2 µM (inactive)
same,IC50,[2],83.3 µM (inactive)
same,IC50,[3],2.58 µM (active)
CC1=C(Cl)C2=NS(=O)(=O)CCN2C=C1Cl,AC50,[19],3.55 µM (active)
O=C1/C(=C/c2ccccc2[N+](=O)[O-])COc2ccccc21,AC50,[20],9.8 µM (active)
same,CC50,[7],100 µM (active)
same,IC50,[8],101 µM (active)
same,AC50,[19],4.77 µM (active)
O=C1CCCc2c1[nH]c1ccc(Cl)cc21,EC50,[6],9.1 µM (active)
same,AC50,[9],3.39 µM (active)
same,AC50,[11],15 µM (active)
same,AC50,[12],< 0.26 µM (active)
same,AC50,[13],6.38 µM (active)
C[C@H]1CN([C@@H](C)CO)C(=O)Cc2cc(NC(=O)Nc3ccc4c(c3)OCO4)ccc2O[C@H]1CN(C)S(=O)(=O)c1ccccc1,AC50,[9],0.991 µM (active)
same,AC50,[10],37.3 µM (active)
same,AC50,[11],0.739 µM (active)
same,AC50,[13],7.28 µM (active)
C[C@H]1CN([C@@H](C)CO)C(=O)Cc2cc(NC(=O)Nc3ccc4c(c3)OCO4)ccc2O[C@H]1CN(C)S(=O)(=O)c1cccs1,AC50,[9],1.93 µM (active)
same,AC50,[10],49.9 µM (active)
same,AC50,[13],22.3 µM (active)
CC(=O)Nc1cccc(Oc2nc(NCCN(C)C)nc3ccsc23)c1,AC50,[18],11.1 µM (active)
N#Cc1cccc(-c2ccc([C@@H]3[C@@H]4CN(S(=O)(=O)c5ccc(-c6ccccc6)cc5)C[C@H]3N4)cc2)c1,AC50,[19],1.82 µM (active)
N#Cc1ccc(-c2ccc([C@@H]3[C@@H]4CN(S(=O)(=O)c5ccc(F)cc5)C[C@H]3N4)cc2)cc1,AC50,[19],1.57 µM (active)
same,AC50,[21],4.69 µM (active)
C/C(=N\Nc1nc2ccccc2[nH]1)c1ccc2c(c1)OCO2,EC50,[22],13.3 µM (active)
same,EC50,[23],> 150 µM (not active)
same,EC50,[16],1.37 µM (active)
same,EC50,[17],> 60 µM (not active)
same,EC50,[24],> 150 µM (not active)
same,AC50,[25],0.116 µM (active)
same,IC50,[1],28.2 µM (inactive)
same,IC50,[2],48.4 µM (inactive)
same,IC50,[3],119 µM (inactive)
CC(C)(C)n1nc(Cc2cccc3ccccc23)c2c(N)ncnc21,AC50,[9],7.07 µM (active)
same,AC50,[10],46.8 µM (active)
same,AC50,[12],31.1 µM (active)
same,AC50,[13],34.5 µM (active)
